Data taken from the supplement of paper PMC10331698.
± gives the standard deviation of the averaged measurements.

What was measured:
Experiment in all cases: level (log10 ratio to DMSO vehicle control); higher = higher biomarker level / cell amount than vehicle control
[1] = compound: O=S(=O)(O)C(F)(F)C(F)(F)C(F)(F)C(F)(F)C(F)(F)C(F)(F)C(F)(F)F [Perfluoroheptanesulfonic acid] (in DMSO)
Method: (§1)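 BioMAP Diversity Plus panel of 12 human primary cell co-culture systems (3C, 4H, LPS, SAg, BT, BF4T, BE3C, CASM3C, HDF3CGF, KF3CT, MyoF, Mphg). Compounds were added 1 h before stimulation and left for 24 h (MyoF 48 h; BT 72 h for soluble read-outs or 6 d for IgG). Biomarkers were read by ELISA, cytotoxicity by SRB, PBMC viability and proliferation by Alamar Blue. Each well value was divided by the mean of 8 DMSO control wells on the same plate and log10 transformed; duplicate blinded samples were tested at 4 concentrations.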

[2] = compound: O=C(O)C(F)(OC(F)(F)C(F)(OC(F)(F)C(F)(OC(F)(F)C(F)(F)C(F)(F)F)C(F)(F)F)C(F)(F)F)C(F)(F)F [Perfluoro-(2,5,8-trimethyl-3,6,9-trioxadodecanoic)acid] (in DMSO)
Method: as §1

[3] = compound: CO[Si](C)(CCC(F)(F)C(F)(F)C(F)(F)C(F)(F)C(F)(F)C(F)(F)F)OC [Dimethoxymethyl((perfluorohexyl)ethyl)silane] (in DMSO)
Method: as §1

[4] = compound: C[C@@H]1C[C@H]2[C@@H]3CCC4=CC(=O)C=C[C@]4(C)[C@@]3(F)[C@@H](O)C[C@]2(C)[C@@]1(O)C(=O)COP(=O)(O)O [Dexamethasone sodium phosphate] (in DMSO)
Method: as §1

[5] = compound: O=S(=O)(O)CCC(F)(F)C(F)(F)C(F)(F)C(F)(F)C(F)(F)C(F)(F)C(F)(F)C(F)(F)F [8:2 Fluorotelomer sulfonic acid] (in DMSO)
Method: as §1

[6] = compound: NS(=O)(=O)C(F)(F)C(F)(F)C(F)(F)C(F)(F)C(F)(F)C(F)(F)C(F)(F)C(F)(F)F [Perfluorooctanesulfonamide] (in DMSO)
Method: as §1

| Test System | level (log10) ([1]; 1500 nM) | level (log10) ([1]; 4400 nM) | level (log10) ([1]; 13000 nM) | level (log10) ([1]; 40000 nM) | level (log10) ([2]; 1100 nM) | level (log10) ([2]; 3300 nM) | level (log10) ([2]; 10000 nM) | level (log10) ([3]; 6700 nM) | level (log10) ([3]; 20000 nM) | level (log10) ([4]; 1500 nM) | level (log10) ([4]; 4400 nM) | level (log10) ([4]; 13000 nM) | level (log10) ([4]; 40000 nM) | level (log10) ([5]; 6700 nM) | level (log10) ([5]; 20000 nM) | level (log10) ([5]; 60000 nM) | level (log10) ([6]; 6700 nM) | level (log10) ([6]; 20000 nM) |
| --- | --- | --- | --- | --- | --- | --- | --- | --- | --- | --- | --- | --- | --- | --- | --- | --- | --- | --- |
| 3C:CD87/uPAR | 0.0655 ± 0.0078 | 0.0535 ± 0.021 | 0.0485 ± 0.044 | 0.0565 ± 0.064 | -0.0075 ± 0.016 | -0.0005 ± 0.011 | -0.0105 ± 0.019 | -0.002 ± 0.0071 | -0.026 ± 0.021 | 0.0545 ± 0.013 | 0.048 ± 0.02 | 0.0455 ± 0.00071 | 0.016 ± 0.016 | 0.0195 ± 0.016 | -0.001 ± 0.058 | -0.003 ± 0.03 | 0.006 ± 0.0099 | -0.0425 ± 0.016 |
| 3C:CXCL8/IL-8 | 0.007 ± 0.086 | -0.0115 ± 0.013 | 0.0015 ± 0.03 | 0.055 ± 0.054 | -0.004 ± 0.021 | -0.015 ± 0.011 | 0.005 ± 0.024 | -0.007 ± 0.0014 | 0.011 ± 0.0057 | 0.014 ± 0.027 | -0.0015 ± 0.0035 | -0.0035 ± 0.032 | -0.007 ± 0.062 | -0.0005 ± 0.13 | 0.012 ± 0.057 | 0.079 ± 0.024 | 0.012 ± 0.018 | 0.0635 ± 0.0064 |
| 3C:CXCL9/MIG | 0.006 ± 0.0014 | -0.006 ± 0.0071 | 0 ± 0.0057 | 0.0075 ± 0.011 | 0.0125 ± 0.0078 | -0.0035 ± 0.021 | 0.007 ± 0.0071 | -0.011 ± 0.0014 | 0.003 ± 0.0071 | 0.0025 ± 0.0021 | 0.001 ± 0.0085 | -0.004 ± 0.0071 | 0.003 ± 0.0085 | -0.004 ± 0.0014 | 0.004 ± 0.013 | -0.0045 ± 0.0035 | 0.0225 ± 0.021 | 0.006 ± 0.028 |
| 3C:HLA-DR | 0.0125 ± 0.0064 | -0.0075 ± 0.0092 | -0.005 ± 0.024 | 0.008 ± 0.016 | -0.0045 ± 0.0078 | -0.002 ± 0.0057 | 0.0115 ± 0.013 | 0.013 ± 0.014 | 0.029 ± 0.013 | -0.0025 ± 0.012 | -0.0065 ± 0.022 | 0.0035 ± 0.0035 | 0.0135 ± 0.0035 | -0.0155 ± 0.012 | -0.011 ± 0.0071 | -0.011 ± 0.0085 | -0.0115 ± 0.043 | -0.118 ± 0.082 |
| 3C:Proliferation | -0.0785 ± 0.13 | -0.0425 ± 0.044 | 0.0015 ± 0.022 | -0.0275 ± 0.021 | 0.007 ± 0.02 | 0.013 ± 0.0085 | -0.011 ± 0.013 | 0.003 ± 0.014 | -0.0055 ± 0.03 | -0.0115 ± 0.005 | 0.011 ± 0.092 | -0.0045 ± 0.052 | 0.015 ± 0.02 | 0.004 ± 0.086 | -0.0315 ± 0.083 | -0.053 ± 0.018 | -0.039 ± 0.0099 | -0.208 ± 0.02 |
| 3C:SRB | -0.0295 ± 0.023 | -0.0275 ± 0.0078 | -0.0065 ± 0.016 | -0.0125 ± 0.023 | -0.0025 ± 0.005 | -0.0065 ± 0.0035 | 0.003 ± 0.0071 | -0.006 ± 0.0028 | 0.0085 ± 0.0035 | -0.0005 ± 0.00071 | -0.005 ± 0.0085 | -0.0025 ± 0.025 | 0.0035 ± 0.025 | -0.017 ± 0.0057 | -0.019 ± 0.018 | -0.0705 ± 0.028 | 0.0135 ± 0.022 | -0.088 ± 0.0042 |
| 4H:CCL2/MCP-1 | -0.0125 ± 0.094 | 0.0165 ± 0.081 | 0.03 ± 0.05 | 0.0135 ± 0.012 | 0.0005 ± 0.012 | -0.017 ± 0.0099 | 0.0205 ± 0.021 | -0.05 ± 0.033 | 0.011 ± 0.12 | -0.0075 ± 0.018 | 0.005 ± 0.033 | 0.017 ± 0.041 | 0.043 ± 0.025 | -0.001 ± 0.014 | -0.033 ± 0.016 | 0.0125 ± 0.046 | -0.093 ± 0.023 | -0.124 ± 0.0021 |
| 4H:CCL26/Eotaxin-3 | -0.006 ± 0.025 | -0.061 ± 0.035 | -0.0335 ± 0.011 | -0.0665 ± 0.022 | 0.0005 ± 0.0078 | -0.0095 ± 0.023 | -0.0075 ± 0.005 | -0.0125 ± 0.023 | 0.011 ± 0.014 | -0.0175 ± 0.0035 | -0.0315 ± 0.0035 | -0.0285 ± 0.029 | -0.052 ± 0.078 | 0.0095 ± 0.06 | -0.0325 ± 0.015 | -0.075 ± 0.0042 | -0.0145 ± 0.013 | -0.03 ± 0.042 |
| 4H:CD62P/P-selectin | -0.0225 ± 0.043 | -0.0165 ± 0.005 | -0.002 ± 0.02 | 0.0305 ± 0.022 | -0.002 ± 0.069 | 0.0295 ± 0.0064 | -0.0445 ± 0.026 | -0.0095 ± 0.033 | -0.0135 ± 0.036 | -0.0355 ± 0.037 | -0.038 ± 0.0042 | -0.022 ± 0.011 | -0.033 ± 0.047 | -0.0315 ± 0.09 | -0.034 ± 0.099 | -0.015 ± 0.071 | 0.028 ± 0.014 | -0.0235 ± 0.018 |
| 4H:CD87/uPAR | -0.0135 ± 0.032 | 0.0325 ± 0.00071 | 0.0455 ± 0.005 | 0.0355 ± 0.029 | 0.001 ± 0.027 | -0.0025 ± 0.011 | 0.0075 ± 0.0092 | 0.004 ± 0.028 | 0.0195 ± 0.013 | -0.0055 ± 0.0021 | -0.0195 ± 0.022 | -0.024 ± 0.086 | -0.0375 ± 0.094 | 0.026 ± 0.0028 | -0.01 ± 0.023 | -0.0345 ± 0.015 | 0.0155 ± 0.0064 | -0.026 ± 0.028 |
| 4H:CD106/VCAM-1 | -0.002 ± 0.062 | -0.029 ± 0.017 | -0.0345 ± 0.019 | -0.0295 ± 0.03 | 0.019 ± 0.013 | 0.027 ± 0.014 | 0.049 ± 0.0099 | 0.003 ± 0.011 | 0.0265 ± 0.0035 | 0.004 ± 0.02 | -0.011 ± 0.0042 | -0.012 ± 0.0028 | -0.005 ± 0.011 | -0.0065 ± 0.025 | -0.018 ± 0.0014 | -0.0375 ± 0.0021 | 0.013 ± 0.034 | -0.0335 ± 0.044 |
| 4H:SRB | -0.0185 ± 0.012 | -0.007 ± 0.014 | -0.0055 ± 0.013 | -0.0065 ± 0.018 | 0.0045 ± 0.0064 | 0 ± 0.0028 | 0.009 ± 0.0057 | -0.015 ± 0.013 | 0.0065 ± 0.00071 | 0.001 ± 0.011 | -0.0135 ± 0.005 | 0.005 ± 0.014 | 0.007 ± 0.038 | -0.012 ± 0.0014 | -0.0135 ± 0.012 | -0.018 ± 0.033 | -0.005 ± 0.011 | -0.0815 ± 0.0021 |
| 4H:VEGFR2 | 0.023 ± 0.041 | -0.013 ± 0.0085 | -0.005 ± 0.044 | 0.043 ± 0.1 | -0.002 ± 0.014 | -0.0135 ± 0.005 | 0.001 ± 0.0071 | -0.023 | -0.001 ± 0.027 | 0.025 ± 0.0057 | -0.0665 ± 0.057 | -0.0115 ± 0.069 | -0.004 ± 0.059 | -0.0345 ± 0.12 | 0.003 ± 0.0014 | -0.026 ± 0.0028 | -0.0175 ± 0.035 | -0.006 ± 0.044 |
| BE3C:CD54/ICAM-1 | 0.006 ± 0.027 | 0.0015 ± 0.022 | -0.0025 ± 0.036 | 0.0055 ± 0.052 | 0.0115 ± 0.037 | 0.0145 ± 0.033 | 0.0295 ± 0.033 | 0 ± 0.0085 | 0 ± 0.0042 | -0.0035 ± 0.033 | -0.0265 ± 0.005 | -0.0205 ± 0.0021 | -0.0105 ± 0.021 | 0.0215 ± 0.018 | 0.013 ± 0.0042 | -0.02 ± 0.014 | -0.008 ± 0.016 | -0.001 ± 0.018 |
| BE3C:CD87/uPAR | 0.017 ± 0.024 | -0.0045 ± 0.015 | -0.0065 ± 0.03 | 0.05 ± 0.069 | -0.0035 ± 0.0021 | -0.011 ± 0.0057 | 0.025 ± 0.024 | 0.0225 ± 0.013 | 0.0075 ± 0.0078 | -0.08 ± 0.048 | -0.102 ± 0.0057 | -0.108 ± 0.033 | -0.096 ± 0.0042 | 0.0225 ± 0.0035 | 0.0135 ± 0.011 | -0.01 ± 0.031 | -0.01 ± 0.0071 | -0.0025 ± 0.019 |
